From patent publication US20260070945A1, “MACROCYCLIC IMMUNOMODULATORS” (Bristol-Myers Squibb Company, priority 2022, published 2026)
pIC50: −log10 of the molar value. Where a SMILES comes first, the peptide text is derived from it. Bridges are numbered along the chain shown (N, C = ends). [ ]: non-standard residue; d: D form. The star is where a group is joined. ξ: configuration not given here. Phe(4-COOH) = N[C@@H](Cc1ccc(C(=O)O)cc1)C(=O)O; Bip = N[C@@H](Cc1ccc(-c2ccccc2)cc1)C(=O)O; Phe(4-CN) = N#Cc1ccc(C[C@H](N)C(=O)O)cc1; Phe(3-F) = N[C@@H](Cc1cccc(F)c1)C(=O)O; Phe(3-Me) = Cc1cccc(C[C@H](N)C(=O)O)c1; Val(3-OH) = CC(C)(O)[C@H](N)C(=O)O; hArg = N=C(N)NCCCC[C@H](N)C(=O)O; 4Pal = N[C@@H](Cc1ccncc1)C(=O)O; NMeQ = CN[C@@H](CCC(N)=O)C(=O)O; Cha = N[C@@H](CC1CCCCC1)C(=O)O; Cit = NC(=O)NCCC[C@H](N)C(=O)O; Ile(3ξ) = CCC(C)[C@H](N)C(=O)O; Thr(3ξ) = CC(O)[C@H](N)C(=O)O; Carboxymethyl = O=C(O)C*; NMeA = CN[C@@H](C)C(=O)O; Orn = NCCC[C@H](N)C(=O)O; Aun = NCCCCCCCCCCC(=O)O; Dab = NCC[C@H](N)C(=O)O; Dap = NC[C@H](N)C(=O)O; AEEA = NCCOCCOCC(=O)O

molecular target: T1, PD-1/PD-L1 interaction (PE-labeled human PD-L1-Ig binding to Jurkat cell line over-expressing human PD-1) (Homo sapiens, UniProt Q15116); assay: Jurkat-PD-1 Cell Binding High-Content Screening Assay (CBA); conditions: Jurkat-hPD-1 cells, PE-labeled PD-L1-Ig 20 nM final; read-out: Jurkat HPD1 PDL1 IC50
T1 construct: expressed in transfected cells; host or cells: Jurkat
How it was run: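 Compound is added first to the PD-1-expressing Jurkat cells and held 2 h at 37 °C in serum-containing DMEM. The fluorescent PD-L1 fusion follows at 20 nM final for 1 h. Fixed, Hoechst-stained cells are then imaged for bound label.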

T1 sequence (Q15116 25-288): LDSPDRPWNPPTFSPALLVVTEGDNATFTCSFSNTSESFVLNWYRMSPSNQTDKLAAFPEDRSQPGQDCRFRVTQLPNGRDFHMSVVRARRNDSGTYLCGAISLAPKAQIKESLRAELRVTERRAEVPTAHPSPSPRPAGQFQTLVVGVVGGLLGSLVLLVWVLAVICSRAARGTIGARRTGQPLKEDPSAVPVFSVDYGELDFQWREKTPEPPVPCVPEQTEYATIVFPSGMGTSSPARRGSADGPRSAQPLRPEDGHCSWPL

pIC50	Compound
7.84	CC(C)C[C@H]1NC(=O)[C@H](C)N(C)C(=O)[C@H](C(C)C)NC(=O)[C@H](Cc2ccc(-c3ccccc3)cc2)NC(=O)[C@H](C(C)C)NC(=O)[C@H](Cc2c[nH]c3ccccc23)NC(=O)[C@H](CC(=O)O)NC(=O)[C@H](Cc2ccc(C(=O)O)cc2)NC(=O)[C@H](Cc2ccc(OCC(=O)O)cc2)NC(=O)CSC[C@@H](C(=O)N[C@@H](CCCCN)C(=O)NCCOCCOCC(=O)NCCCCCCCCCCC(=O)O)NC(=O)[C@H](CO)NC(=O)[C@H](C(C)C)NC(=O)[C@H](CC2CCCCC2)NC(=O)[C@H](CCN)NC1=O [Example 2101] ({CH2CO}-Y(Carboxymethyl)[Phe(4-COOH)]DWV[Bip]V[NMeA][dL][Dab][Cha]VSCK[AEEA][Aun]-OH; thioether N-14)
7.81	CC(C)C[C@@H]1NC(=O)[C@H](Cc2c[nH]c3ccccc23)NC(=O)[C@H](CC(=O)O)NC(=O)[C@H](Cc2ccncc2)NC(=O)[C@H](Cc2ccc(OCC(=O)O)cc2)NC(=O)CSC[C@@H](C(=O)NCC(=O)NCCOCCOCC(=O)N[C@@H](CCCNC(N)=O)C(=O)NCCCCCCCCCCC(=O)O)NC(=O)[C@H](CCCNC(N)=O)NC(=O)[C@H](C(C)C)NC(=O)[C@H](CC2CCCCC2)NC(=O)[C@H](CCN)NC(=O)[C@@H](CC(C)C)NC(=O)[C@H](C)N(C)C(=O)[C@H](C(C)C)NC(=O)[C@H](Cc2ccc(-c3ccccc3)cc2)NC1=O [Example 2173] ({CH2CO}-Y(Carboxymethyl)[4Pal]DWL[Bip]V[NMeA][dL][Dab][Cha]V[Cit]CG[AEEA][Cit][Aun]-OH; thioether N-14)
6.89	CC(C)C[C@@H]1NC(=O)[C@H](Cc2c[nH]c3ccccc23)NC(=O)[C@H](CC(=O)O)NC(=O)[C@H](Cc2ccc(OCC(=O)O)cc2)NC(=O)[C@H](C(C)O)NC(=O)CSC[C@@H](C(=O)NCCOCCOCC(=O)NCCCCCCCCCCC(=O)O)NC(=O)[C@H](CO)NC(=O)[C@H](C(C)(C)O)NC(=O)[C@H](CC2CCCCC2)NC(=O)[C@H](CCC(=O)O)NC(=O)[C@@H](CC(C)C)NC(=O)[C@H](C)N(C)C(=O)[C@H](C(C)C)NC(=O)[C@H](Cc2ccc(-c3ccccc3)cc2)NC1=O (stereo partly drawn) [Example 2448] ({CH2CO}-[Thr(3ξ)]Y(Carboxymethyl)DWL[Bip]V[NMeA][dL]E[Cha][Val(3-OH)]SC[AEEA][Aun]-OH; thioether N-14)
7.40	CCC(C)[C@@H]1NC(=O)[C@H](Cc2ccc(-c3ccccc3)cc2)NC(=O)[C@H](CC(C)C)NC(=O)[C@H](Cc2c[nH]c3ccccc23)NC(=O)[C@H](CC(=O)O)NC(=O)[C@H](Cc2ccc(OCC(=O)O)cc2)NC(=O)[C@H](CCCCNC(=N)N)NC(=O)CSC[C@@H](C(=O)NCCOCCOCC(=O)N[C@@H](CCN)C(=O)NCCCCCCCCCCC(=O)O)NC(=O)[C@H](CCCCN)NC(=O)[C@H](C(C)C)NC(=O)[C@H](CC2CCCCC2)NC(=O)[C@H](CCN)NC(=O)[C@@H](C)NC(=O)[C@H](C)N(C)C1=O (stereo partly shown) [Example 2185] ({CH2CO}-[hArg]Y(Carboxymethyl)DWL[Bip][Ile(3ξ)][NMeA][dA][Dab][Cha]VKC[AEEA][Dab][Aun]-OH; thioether N-14)
7.66	CCC(C)[C@@H]1NC(=O)[C@H](Cc2ccc(-c3ccccc3)cc2)NC(=O)[C@H](C(C)C)NC(=O)[C@H](Cc2c[nH]c3ccccc23)NC(=O)[C@H](CC(=O)O)NC(=O)[C@H](Cc2ccncc2)NC(=O)[C@H](Cc2ccc(OCC(=O)O)cc2)NC(=O)CSC[C@@H](C(=O)N[C@@H](CCCCN)C(=O)NCCOCCOCC(=O)NCCCCCCCCCCC(=O)O)NC(=O)[C@H](C(C)O)NC(=O)[C@H](C(C)C)NC(=O)[C@H](CC2CCCCC2)NC(=O)[C@H](CCN)NC(=O)[C@@H](CC(C)C)NC(=O)[C@H](C)N(C)C1=O (stereo partly drawn) [Example 2107] ({CH2CO}-Y(Carboxymethyl)[4Pal]DWV[Bip][Ile(3ξ)][NMeA][dL][Dab][Cha]V[Thr(3ξ)]CK[AEEA][Aun]-OH; thioether N-14)
7.97	CC(C)C[C@H]1NC(=O)[C@H](C)N(C)C(=O)[C@H](C(C)C)NC(=O)[C@H](Cc2ccc(-c3ccccc3)cc2)NC(=O)[C@H](C(C)C)NC(=O)[C@H](Cc2c[nH]c3ccccc23)NC(=O)[C@H](CC(=O)O)NC(=O)[C@H](Cc2ccc(C(=O)O)cc2)NC(=O)[C@H](Cc2ccc(OCC(=O)O)cc2)NC(=O)CSC[C@@H](C(=O)N[C@@H](CCCCN)C(=O)NCCOCCOCC(=O)NCCCCCCCCCCC(=O)O)NC(=O)[C@H](C(C)O)NC(=O)[C@H](C(C)C)NC(=O)[C@H](CC2CCCCC2)NC(=O)[C@H](CCN)NC1=O (stereo partly drawn) [Example 2109] ({CH2CO}-Y(Carboxymethyl)[Phe(4-COOH)]DWV[Bip]V[NMeA][dL][Dab][Cha]V[Thr(3ξ)]CK[AEEA][Aun]-OH; thioether N-14)
6.77	CCC(C)[C@@H]1NC(=O)[C@H](CC(C)C)NC(=O)[C@H](CCN)NC(=O)[C@@H](CC(C)C)NC(=O)[C@H](C)N(C)C(=O)[C@H](C(C)CC)NC(=O)[C@H](Cc2ccc(-c3ccccc3)cc2)NC(=O)[C@H](C(C)CC)NC(=O)[C@H](Cc2c[nH]c3ccccc23)NC(=O)[C@H](CC(=O)O)NC(=O)[C@H](Cc2ccc(OCC(=O)O)cc2)NC(=O)[C@H](C(C)O)NC(=O)CSC[C@@H](C(=O)N[C@H](CC(N)=O)C(=O)NCCOCCOCC(=O)N[C@@H](CCCN)C(=O)NCCCCCCCCCCC(=O)O)NC(=O)[C@H](CO)NC1=O (stereo partly drawn) [Example 2082] ({CH2CO}-[Thr(3ξ)]Y(Carboxymethyl)DW[Ile(3ξ)][Bip][Ile(3ξ)][NMeA][dL][Dab]L[Ile(3ξ)]SC[dN][AEEA][Orn][Aun]-OH; thioether N-14)

More lines, now with the values behind:

Compound	pIC50
Cc1cccc(C[C@@H]2NC(=O)[C@H](CC(=O)O)NC(=O)[C@H](Cc3ccc(OCC(=O)O)cc3)NC(=O)[C@H](CN)NC(=O)CSC[C@@H](C(=O)NCC(=O)N[C@@H](CCC(=O)O)C(=O)NCCCCCCCCCCC(=O)O)NC(=O)[C@H](CO)NC(=O)[C@H](C(C)C)NC(=O)[C@H](CC(C)C)NC(=O)[C@H](CC(N)=O)NC(=O)[C@@H](CC(C)C)NC(=O)[C@H](C)N(C)C(=O)[C@H](C(C)C)NC(=O)[C@H](Cc3ccc(-c4ccccc4)cc3)NC(=O)[C@H](CC(C)C)NC2=O)c1 [Example 1060] ({CH2CO}-[Dap]Y(Carboxymethyl)D[Phe(3-Me)]L[Bip]V[NMeA][dL]NLVSCGE[Aun]-OH; thioether N-14)	7.32
Cc1cccc(C[C@@H]2NC(=O)[C@H](CC(=O)O)NC(=O)[C@H](Cc3ccc(OCC(=O)O)cc3)NC(=O)[C@H](Cc3ccc(OCC(=O)O)cc3)NC(=O)CSC[C@@H](C(=O)NCCCCCCCCCCC(=O)O)NC(=O)[C@H](CCC(=O)O)NC(=O)[C@H](C(C)C)NC(=O)[C@H](CC3CCCCC3)NC(=O)[C@H](CCN)NC(=O)[C@@H](CC(C)C)NC(=O)[C@H](CCC(N)=O)N(C)C(=O)[C@H](Cc3ccc(O)cc3)NC(=O)[C@H](Cc3ccc(-c4ccccc4)cc3)NC(=O)[C@H](Cc3ccc(O)cc3)NC2=O)c1 [Example 2255] ({CH2CO}-Y(Carboxymethyl)Y(Carboxymethyl)D[Phe(3-Me)]Y[Bip]Y[NMeQ][dL][Dab][Cha]VEC[Aun]-OH; thioether N-14)	7.20
CC(C)C[C@@H]1NC(=O)[C@H](Cc2c[nH]c3ccccc23)NC(=O)[C@H](CC(=O)O)NC(=O)[C@H](Cc2ccc(OCC(=O)O)cc2)NC(=O)[C@H](Cc2ccccc2)NC(=O)CSC[C@@H](C(=O)N[C@@H](CCCN)C(=O)NCCCCCCCCCCC(=O)O)NC(=O)[C@H]([C@@H](C)O)NC(=O)[C@H](C(C)C)NC(=O)[C@H](CC(C)C)NC(=O)[C@H](CC(N)=O)NC(=O)[C@@H](CC(C)C)NC(=O)[C@H](C)N(C)C(=O)[C@H](C(C)C)NC(=O)[C@H](Cc2ccc(-c3ccccc3)cc2)NC1=O [Example 1335] ({CH2CO}-FY(Carboxymethyl)DWL[Bip]V[NMeA][dL]NLVTC[Orn][Aun]-OH; thioether N-14)	7.23
Cc1cccc(C[C@@H]2NC(=O)[C@H](CC(=O)O)NC(=O)[C@H](Cc3ccc(OCC(=O)O)cc3)NC(=O)[C@H](C(C)O)NC(=O)CSC[C@@H](C(=O)N[C@H](CC(N)=O)C(=O)NCCCCCCCCCCC(=O)O)NC(=O)[C@H](C(C)O)NC(=O)[C@H](C(C)C)NC(=O)[C@H](CC3CCCCC3)NC(=O)[C@H](CCN)NC(=O)[C@@H](CC(C)C)NC(=O)[C@H](C)N(C)C(=O)[C@H](CCCNC(=N)N)NC(=O)[C@H](Cc3ccc(-c4ccccc4)cc3)NC(=O)[C@H](Cc3ccc(O)cc3)NC2=O)c1 (stereo partly drawn) [Example 2338] ({CH2CO}-[Thr(3ξ)]Y(Carboxymethyl)D[Phe(3-Me)]Y[Bip]R[NMeA][dL][Dab][Cha]V[Thr(3ξ)]C[dN][Aun]-OH; thioether N-14)	8.26

same assay, conditions: PE-labeled PD-L1-Ig 20 nM final, Jurkat-hPD-1 cells; read-out: Jurkat HPD1 PDL1 IC50

pIC50	Compound
7.66	CC(C)C[C@@H]1NC(=O)[C@H](Cc2c[nH]c3ccccc23)NC(=O)[C@H](CC(=O)O)NC(=O)[C@H](Cc2ccc(OCC(=O)O)cc2)NC(=O)[C@H](Cc2ccc(OCC(=O)O)cc2)NC(=O)CSC[C@@H](C(=O)NCCOCCOCC(=O)NCCCCCCCCCCC(=O)O)NC(=O)[C@H](CCCNC(N)=O)NC(=O)[C@H](C(C)(C)O)NC(=O)[C@H](CC2CCCCC2)NC(=O)[C@H](CCN)NC(=O)[C@@H](CC(C)C)NC(=O)[C@H](C)N(C)C(=O)[C@H](C(C)C)NC(=O)[C@H](Cc2ccc(-c3ccccc3)cc2)NC1=O [Example 2458] ({CH2CO}-Y(Carboxymethyl)Y(Carboxymethyl)DWL[Bip]V[NMeA][dL][Dab][Cha][Val(3-OH)][Cit]C[AEEA][Aun]-OH; thioether N-14)
7.77	Cc1cccc(C[C@@H]2NC(=O)[C@H](CC(=O)O)NC(=O)[C@H](Cc3ccc(C#N)cc3)NC(=O)[C@H](C(C)O)NC(=O)CSC[C@@H](C(=O)N[C@@H](CCN)C(=O)NCCOCCOCC(=O)NCCOCCOCC(=O)NCCCCCCCCCCC(=O)O)NC(=O)[C@H](CCC(=O)O)NC(=O)[C@H](C(C)C)NC(=O)[C@H](CC3CCCCC3)NC(=O)[C@H](CCN)NC(=O)[C@@H](CC(C)C)NC(=O)[C@H](C)N(C)C(=O)[C@H](Cc3ccc(OCC(=O)O)cc3)NC(=O)[C@H](Cc3ccc(-c4ccccc4)cc3)NC(=O)[C@H](Cc3cccc(F)c3)NC2=O)c1 (stereo partly drawn) [Example 2526] ({CH2CO}-[Thr(3ξ)][Phe(4-CN)]D[Phe(3-Me)][Phe(3-F)][Bip]Y(Carboxymethyl)[NMeA][dL][Dab][Cha]VEC[Dab][AEEA][AEEA][Aun]-OH; thioether N-14)
